PubChem BioAssay (NCI)
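Cultured in 96-well plates, cells were exposed to test compound for 48 hours across five concentrations. GI50 marks 50% less growth. TGI denotes the concentration required for complete inhibition of growth.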

Key:
Experiment in all cases: NCI anticancer screen, dose series, 48 h
[1] = tested on: SN12C renal
[2] = tested on: HOP-92 NSCLC
[3] = tested on: SK-MEL-28 melanoma
[4] = tested on: SF-268 CNS
[5] = tested on: MALME-3M melanoma
[6] = tested on: HCT-15 colon
[7] = tested on: NCI-H522 lung
[8] = tested on: SR leukemia
[9] = tested on: K-562 leukemia
[10] = tested on: SW-620 colon
[11] = tested on: NCI/ADR-RES ovarian
[12] = tested on: HOP-62 NSCLC
[13] = tested on: CAKI-1 renal
[14] = tested on: SNB-75 CNS
[15] = tested on: 786-0 renal
[16] = tested on: U251 CNS
[17] = tested on: EKVX NSCLC
[18] = tested on: A498 renal
[19] = tested on: ACHN renal
[20] = tested on: T-47D breast
[21] = tested on: HCC-2998 colon
[22] = tested on: LOX IMVI melanoma
[23] = tested on: MDA-MB-468 breast
[24] = tested on: OVCAR-8 ovarian
[25] = tested on: MDA-MB-231 breast
[26] = tested on: HT29 colon
[27] = tested on: OVCAR-5 ovarian
[28] = tested on: NCI-H460 lung
[29] = tested on: SK-OV-3 ovarian
[30] = tested on: UACC-62 melanoma
[31] = tested on: NCI-H23 lung
[32] = tested on: IGROV1 ovarian
[33] = tested on: SNB-19 CNS
[34] = tested on: PC-3 prostate
[35] = tested on: RPMI-8226 leukemia
[36] = tested on: HCT-116 colon
[37] = tested on: DU-145 prostate
[38] = tested on: OVCAR-4 ovarian
[39] = tested on: RXF 393 renal
[40] = tested on: SF-539 CNS
[41] = tested on: UO-31 renal
[42] = tested on: UACC-257 melanoma
[43] = tested on: M14 melanoma
[44] = tested on: MOLT-4 leukemia
[45] = tested on: KM12 colon
[46] = tested on: SF-295 CNS
[47] = tested on: COLO 205 colon
[48] = tested on: HS 578T breast
[49] = tested on: CCRF-CEM leukemia
[50] = tested on: SK-MEL-5 melanoma
[51] = tested on: MCF7 breast
[52] = tested on: OVCAR-3 ovarian
[53] = tested on: SK-MEL-2 melanoma
[54] = tested on: NCI-H226 lung
[55] = tested on: TK-10 renal
[56] = tested on: MDA-MB-435
[57] = tested on: BT-549 breast
[58] = tested on: HL-60(TB) leukemia
[59] = tested on: A549 NSCLC

`COc1ccc2[nH]c(O)c(N=Nc3nc(-c4ccccc4)cs3)c2c1` was tested, and the GI50 [1] was 2.5 µM, the TGI [1] was 17.7 µM and the GI50 [2] was 1.06 µM. It also gave a TGI [2] of 4.14 µM, a GI50 [3] of 4.83 µM and a TGI [3] greater than 100 µM. For the same compound, the GI50 [4] was 3.1 µM, the TGI [4] was 11.8 µM and the GI50 [5] was 2.51 µM. The TGI [5] was 13.1 µM, the GI50 [6] was 3.26 µM and the TGI [6] was 17.3 µM. It also gave a GI50 [7] of 2.29 µM, a TGI [7] of 9.63 µM and a GI50 [8] of 4.55 µM. For the same compound, the TGI [8] was greater than 100 µM, the GI50 [9] was 4.62 µM and the TGI [9] was greater than 100 µM. The GI50 [10] was 3.7 µM, the TGI [10] was 16.6 µM and the GI50 [11] was 2.24 µM. It also gave a TGI [11] of 5.15 µM, a GI50 [12] of 5.26 µM and a TGI [12] of 30.3 µM. The GI50 [13] was 3.85 µM, the TGI [13] was 16.7 µM and the GI50 [14] was 2.64 µM. The TGI [14] was 16.2 µM, the GI50 [15] was 1.96 µM and the TGI [15] was 3.69 µM. It also gave a GI50 [16] of 2.62 µM, a TGI [16] of 6.97 µM and a GI50 [17] of 2.62 µM. The TGI [17] was 20.2 µM, the GI50 [18] was 2.67 µM and the TGI [18] was 5.96 µM. The GI50 [19] was 2.89 µM, the TGI [19] was 10.2 µM and the GI50 [20] was 2.78 µM. It also gave a TGI [20] of 15.8 µM, a GI50 [21] of 6.93 µM and a TGI [21] greater than 100 µM. It also gave a GI50 [22] of 3.08 µM, a TGI [22] of 10.5 µM and a GI50 [23] of 1.71 µM. It also gave a TGI [23] of 5.35 µM, a GI50 [24] of 3.11 µM and a TGI [24] of 10.5 µM. The GI50 [25] was 2.66 µM, the TGI [25] was 12.7 µM and the GI50 [26] was 7.21 µM. For the same compound, the TGI [26] was 41.1 µM, the GI50 [27] was 5.44 µM and the TGI [27] was 36.7 µM. For the same compound, the GI50 [28] was 3.43 µM, the TGI [28] was 14.8 µM and the GI50 [29] was 3.52 µM. The TGI [29] was 22.2 µM, the GI50 [30] was 2.54 µM and the TGI [30] was 38.7 µM. The GI50 [31] was 3.56 µM, the TGI [31] was 19.5 µM and the GI50 [32] was 5.04 µM. For the same compound, the TGI [32] was 31.9 µM, the GI50 [33] was 3.09 µM and the TGI [33] was 10.4 µM. The GI50 [34] was 4.57 µM, the TGI [34] was greater than 100 µM and the GI50 [35] was 14.4 µM. The TGI [35] was greater than 100 µM, the GI50 [36] was 2.26 µM and the TGI [36] was 5.34 µM. For the same compound, the GI50 [37] was 4.31 µM, the TGI [37] was 17.5 µM and the GI50 [38] was 1.98 µM. It also gave a TGI [38] of 5.07 µM, a GI50 [39] of 3.05 µM and a TGI [39] of 8.74 µM. It also gave a GI50 [40] of 2.65 µM, a TGI [40] of 8.49 µM and a GI50 [41] of 1.38 µM. The TGI [41] was 6.4 µM, the GI50 [42] was 17.4 µM and the TGI [42] was greater than 100 µM. The GI50 [43] was 5.8 µM, the TGI [43] was 46.7 µM and the GI50 [44] was 7.27 µM. The TGI [44] was greater than 100 µM, the GI50 [45] was 5.55 µM and the TGI [45] was greater than 100 µM. For the same compound, the GI50 [46] was 3.35 µM, the TGI [46] was 12.6 µM and the GI50 [47] was 4.87 µM. For the same compound, the TGI [47] was 29.5 µM, the GI50 [48] was 4.27 µM and the TGI [48] was 42.9 µM. The GI50 [49] was 6.48 µM, the TGI [49] was greater than 100 µM and the GI50 [50] was 11.5 µM. The TGI [50] was 48.3 µM, the GI50 [51] was 3.66 µM and the TGI [51] was 42.5 µM. It also gave a GI50 [52] of 3.06 µM, a TGI [52] of 12.5 µM and a GI50 [53] of 13.3 µM. It also gave a TGI [53] of 59.4 µM, a GI50 [54] of 2.65 µM and a TGI [54] of 13.4 µM. It also gave a GI50 [55] of 6.47 µM, a TGI [55] of 16.5 µM and a GI50 [56] of 4.96 µM. The TGI [56] was greater than 100 µM, the GI50 [57] was 4.43 µM and the TGI [57] was 21.8 µM. The GI50 [58] was 41.1 µM, the TGI [58] was greater than 100 µM and the GI50 [59] was 2.76 µM. For the same compound, the TGI [59] was 11.3 µM.
